Marks after values point to notes of the source that are not given here.
Tests used:
[1] = Intranasal bioavailability of L-lysine-d-amphetamine vs amphetamine (ELISA); settings: rat, 3 mg/kg
[2] = Oral PK study at a high dose (60 mg/kg), 8 h time course; settings: rat; for Mean plasma amphetamine concentration: high dose 60 mg/kg

With d-amphetamine the “AUC (0-[…]) of d-amphetamine” value ([1]; hydrochloride salt study) was 727 ng·h/mL, the Cmax of d-amphetamine ([1]; hydrochloride salt study) was 1,377 ng/ml and the “AUC (0-1.0 h) of d-amphetamine” value ([1]; mesylate salt study) was 573 ng·h/mL. The Cmax of d-amphetamine ([1]; mesylate salt study) was 1114 ng/mL, the AUC of d-amphetamine ([2]; 60 mg/kg) was 13420 ng·h/mL and the “Animals that died or were sacrificed due to acute symptoms of toxicity” value ([2]; 60 mg/kg) was 8 of 12. The Cmax of d-amphetamine ([2]; 60 mg/kg) was 3623 ng/mL, the “Mean Peak of d-amphetamine” value ([2]; 60 mg/kg) was 2973 ng/mL and the “Mean Peak, Percent d-Amp” value ([2]; 60 mg/kg) was 100%. For the same substance, the “Mean plasma amphetamine concentration” value ([2]; 0.5 h) was 2643 ng/mL, the “Mean plasma amphetamine concentration” value ([2]; 1 h) was 2828 ng/mL and the “Mean plasma amphetamine concentration” value ([2]; 3 h (d-amphetamine n = 2)) was 2944* ng/ml. The “Mean plasma amphetamine concentration” value ([2]; 5 h (d-amphetamine n = 2)) was 153* ng/ml and the “Mean plasma amphetamine concentration” value ([2]; 8 h (d-amphetamine n = 1)) was 1309** ng/ml.

— US20090181898A1, “ABUSE-RESISTANT A[…]” (SHIRE LLC, priority 2002, published 2009)
